The values below come from patent US9580437B2, “Triazolopyrimidine compounds and uses thereof” (Novartis AG, priority 2014, dated 2017).

One experiment deals with EED (1-441)-His protein (Homo sapiens (Human), UniProt O75530). The experiment is described as follows: EED-H3K27Me3 peptide competition binding assay by AlphaScreen. The following applies: read-out: (a) IC50 EED Alphascreen binding Qualified. From the text:
EED-H3K27Me3 peptide competition binding assay by AlphaScreen (α-screen)

Experiment [1] has as its target wild type PRC2 (wtPRC2) complex (Homo sapiens (Human), UniProt O75530). Nature of the experiment: EED LC-MS assay. It counts as biochemical. The settings on record: read-out: (b) IC50 EED LC-MS Qualified. As to the method:
A 6 μL solution of 3 μM of the peptide substrate H3K27Me0 (histone H3[21-44]-biotin) in reaction buffer was added to initiate each reaction. […] ELISA (H3K27 Methylation) Assay

What is called IC50 is the concentration needed to halve the response being measured.

Chain of wild type PRC2 (wtPRC2) complex (O75530 whole entry): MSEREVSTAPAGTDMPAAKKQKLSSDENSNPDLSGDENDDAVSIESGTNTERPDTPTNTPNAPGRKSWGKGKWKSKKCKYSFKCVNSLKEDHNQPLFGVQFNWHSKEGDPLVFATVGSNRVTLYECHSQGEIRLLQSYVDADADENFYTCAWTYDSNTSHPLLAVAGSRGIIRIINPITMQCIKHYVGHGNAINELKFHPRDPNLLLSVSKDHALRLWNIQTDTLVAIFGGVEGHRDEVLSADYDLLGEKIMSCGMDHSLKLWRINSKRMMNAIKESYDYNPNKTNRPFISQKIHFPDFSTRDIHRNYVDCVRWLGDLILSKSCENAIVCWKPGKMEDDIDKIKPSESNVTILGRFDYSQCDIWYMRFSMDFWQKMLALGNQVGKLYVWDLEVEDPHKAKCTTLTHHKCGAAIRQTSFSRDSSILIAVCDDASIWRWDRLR
Chain of wild type PRC2 (wtPRC2) complex (Q15910 whole entry partner): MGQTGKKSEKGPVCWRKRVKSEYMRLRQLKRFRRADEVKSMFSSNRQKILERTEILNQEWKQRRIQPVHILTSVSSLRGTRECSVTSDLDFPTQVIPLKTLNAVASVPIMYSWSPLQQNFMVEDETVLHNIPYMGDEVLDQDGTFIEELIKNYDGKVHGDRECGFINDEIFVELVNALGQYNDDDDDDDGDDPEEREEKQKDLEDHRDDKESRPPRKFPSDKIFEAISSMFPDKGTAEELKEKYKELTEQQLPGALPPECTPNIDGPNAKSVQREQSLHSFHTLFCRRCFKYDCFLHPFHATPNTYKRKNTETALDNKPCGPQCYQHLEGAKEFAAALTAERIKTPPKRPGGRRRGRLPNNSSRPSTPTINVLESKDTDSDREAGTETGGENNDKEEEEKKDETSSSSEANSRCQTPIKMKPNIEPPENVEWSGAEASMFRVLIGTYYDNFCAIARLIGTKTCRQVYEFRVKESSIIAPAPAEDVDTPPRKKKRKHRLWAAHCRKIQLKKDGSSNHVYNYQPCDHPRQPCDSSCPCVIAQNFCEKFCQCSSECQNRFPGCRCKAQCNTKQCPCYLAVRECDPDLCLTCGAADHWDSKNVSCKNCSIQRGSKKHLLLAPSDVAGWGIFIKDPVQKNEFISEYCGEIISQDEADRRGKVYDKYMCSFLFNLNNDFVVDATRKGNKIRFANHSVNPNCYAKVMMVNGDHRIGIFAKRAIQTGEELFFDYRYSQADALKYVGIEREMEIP
Chain of wild type PRC2 (wtPRC2) complex (Q15022 whole entry partner): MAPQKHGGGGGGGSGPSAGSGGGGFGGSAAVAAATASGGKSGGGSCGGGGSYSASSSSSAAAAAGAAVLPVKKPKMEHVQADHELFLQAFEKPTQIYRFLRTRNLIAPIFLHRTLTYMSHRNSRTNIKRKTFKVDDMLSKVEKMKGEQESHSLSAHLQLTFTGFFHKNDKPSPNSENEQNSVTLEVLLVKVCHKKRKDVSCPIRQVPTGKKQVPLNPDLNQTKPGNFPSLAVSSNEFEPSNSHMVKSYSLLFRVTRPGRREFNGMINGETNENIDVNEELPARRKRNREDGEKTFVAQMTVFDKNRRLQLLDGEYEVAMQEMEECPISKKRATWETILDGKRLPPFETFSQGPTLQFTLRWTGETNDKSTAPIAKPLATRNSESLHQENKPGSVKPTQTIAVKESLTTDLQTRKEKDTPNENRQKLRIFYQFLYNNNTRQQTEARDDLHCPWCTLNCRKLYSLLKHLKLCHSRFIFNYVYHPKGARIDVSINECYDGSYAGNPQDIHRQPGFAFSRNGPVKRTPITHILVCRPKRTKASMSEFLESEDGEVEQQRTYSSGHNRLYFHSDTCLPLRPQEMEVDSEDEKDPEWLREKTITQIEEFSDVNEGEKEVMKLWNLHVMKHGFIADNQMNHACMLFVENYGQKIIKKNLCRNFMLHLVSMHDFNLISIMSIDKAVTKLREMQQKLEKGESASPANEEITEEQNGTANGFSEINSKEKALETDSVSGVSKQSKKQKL
Chain of EED (1-441)-His protein (O75530 whole entry): as the sequence (O75530 whole entry) above

For the compound `Cc1ncc(-c2cnc(NCc3cccc4c3CCO4)n3cnnc23)cn1` [Example 60, N-((2,3-dihydrobenzofuran-4-yl)methyl)-8-(2-methylpyrimidin-5-yl)-[1,2,4]triazolo[4,3-c]pyrimidin-5-amine], the IC50 was 19.5 nM on EED (1-441)-His protein and 47 nM in experiment [1].
The like results for `CN(C)c1ccc(-c2cnc(NCc3cccc4c3CCO4)n3cnnc23)cn1` [Example 61, N-((2,3-dihydrobenzofuran-4-yl)methyl)-8-(6-(dimethylamino)pyridin-3-yl)-[1,2,4]triazolo[4,3-c]pyrimidin-5-amine] were, in that order, 12.9 nM and 19.7 nM.
Turning to `N#Cc1ccc(-c2cnc(NCc3cccc4c3CCO4)n3cnnc23)cn1` [Example 62, 5-(5-(((2,3-dihydrobenzofuran-4-yl)methyl)amino)-[1,2,4]triazolo[4,3-c]pyrimidin-8-yl)picolinonitrile], the values for the IC50 (at EED (1-441)-His protein; in experiment [1]) were 16 nM and 29.4 nM, respectively.
On to `CCOc1ccc(-c2cnc(NCc3cccc4c3CCO4)n3cnnc23)cn1` [Example 63, N-((2,3-dihydrobenzofuran-4-yl)methyl)-8-(6-ethoxypyridin-3-yl)-[1,2,4]triazolo[4,3-c]pyrimidin-5-amine], for which the IC50 was found to be 75.6 nM on EED (1-441)-His protein and 68.6 nM in experiment [1].
`Cc1c(-c2cnc(NCc3cccc4c3CCO4)n3cnnc23)cnn1C` [Example 64, N-((2,3-dihydrobenzofuran-4-yl)methyl)-8-(1,5-dimethyl-1H-pyrazol-4-yl)-[1,2,4]triazolo[4,3-c]pyrimidin-5-amine]: the half-maximal inhibitory concentration (IC50) at EED (1-441)-His protein came out at 12.4 nM; in experiment [1] it was 41.3 nM.
For `c1cc(CNc2ncc(-c3ccc(C4CC4)nc3)c3nncn23)c2c(c1)OCC2` [Example 65, 8-(6-cyclopropylpyridin-3-yl)-N-((2,3-dihydrobenzofuran-4-yl)methyl)-[1,2,4]triazolo[4,3-c]pyrimidin-5-amine], the 50% inhibitory concentration (IC50) was 18.3 nM on EED (1-441)-His protein and 20 nM in experiment [1].
Turning to `COCCn1nc(C)c(-c2cnc(NCc3cccc4c3CCO4)n3cnnc23)c1C` [Example 66, N-((2,3-dihydrobenzofuran-4-yl)methyl)-8-(1-(2-methoxyethyl)-3,5-dimethyl-1H-pyrazol-4-yl)-[1,2,4]triazolo[4,3-c]pyrimidin-5-amine], the figures for the IC50 (on EED (1-441)-His protein; in experiment [1]) were 15.6 nM and 44.7 nM, respectively.
Take `Cc1nn(CCO)c(C)c1-c1cnc(NCc2cccc3c2CCO3)n2cnnc12` [Example 67, 2-(4-(5-(((2,3-dihydrobenzofuran-4-yl)methyl)amino)-[1,2,4]triazolo[4,3-c]pyrimidin-8-yl)-3,5-dimethyl-1H-pyrazol-1-yl)ethanol]: the IC50 at EED (1-441)-His protein worked out at 30.9 nM; in experiment [1], 90.2 nM.
For `O=C(c1ccc(-c2cnc(NCc3cccc4c3CCO4)n3cnnc23)cn1)N1CCOCC1` [Example 68, (5-(5-(((2,3-dihydrobenzofuran-4-yl)methyl)amino)-[1,2,4]triazolo[4,3-c]pyrimidin-8-yl)pyridin-2-yl)(morpholino)methanone], the IC50 stood at 19.7 nM at EED (1-441)-His protein and 36.7 nM in experiment [1].
On to `c1cc(CNc2ncc(-c3ccc(N4CCOCC4)nc3)c3nncn23)c2c(c1)OCC2` [Example 69, N-((2,3-dihydrobenzofuran-4-yl)methyl)-8-(6-morpholinopyridin-3-yl)-[1,2,4]triazolo[4,3-c]pyrimidin-5-amine], for which the figures for the IC50 (on EED (1-441)-His protein; in experiment [1]) were 182 nM and 377 nM, respectively.
For `Cc1cc(-c2cnc(NCc3cccc4c3CCO4)n3cnnc23)cnc1S(C)(=O)=O` [Example 70, N-((2,3-dihydrobenzofuran-4-yl)methyl)-8-(5-methyl-6-(methylsulfonyl)pyridin-3-yl)-[1,2,4]triazolo[4,3-c]pyrimidin-5-amine], in that order: 11.5 nM and 21.1 nM.
As to `Cc1noc(C)c1-c1cnc(NCc2c(F)ccc3c2CCO3)n2cnnc12` [Example 71, 8-(3,5-dimethylisoxazol-4-yl)-N-((5-fluoro-2,3-dihydrobenzofuran-4-yl)methyl)-[1,2,4]triazolo[4,3-c]pyrimidin-5-amine], the IC50 on EED (1-441)-His protein was determined as 9 nM; in experiment [1] it was 18.9 nM.
Turning to `CN1CCN(C(=O)c2ccc(-c3cnc(NCc4c(F)ccc5c4CCO5)n4cnnc34)cc2)CC1` [Example 72, (4-(5-(((5-fluoro-2,3-dihydrobenzofuran-4-yl)methyl)amino)-[1,2,4]triazolo[4,3-c]pyrimidin-8-yl)phenyl)(4-methylpiperazin-1-yl)methanone], the IC50 at EED (1-441)-His protein was 9.3 nM; in experiment [1], 17.5 nM.
Turning to `Cc1cc(-c2cnc(NCc3cccc4c3CCO4)n3cnnc23)cnc1N1CCOCC1` [Example 73, N-((2,3-dihydrobenzofuran-4-yl)methyl)-8-(5-methyl-6-morpholinopyridin-3-yl)-[1,2,4]triazolo[4,3-c]pyrimidin-5-amine], the IC50 was found to be 12.5 nM at EED (1-441)-His protein and 17.4 nM in experiment [1].
As to `CC1CN(c2ccc(-c3cnc(NCc4cccc5c4CCO5)n4cnnc34)cn2)CC(C)O1` (centres unmarked) [Example 74, N-((2,3-dihydrobenzofuran-4-yl)methyl)-8-(6-(2,6-dimethylmorpholino)pyridin-3-yl)-[1,2,4]triazolo[4,3-c]pyrimidin-5-amine], the IC50 on EED (1-441)-His protein was determined as 89.6 nM; in experiment [1], 139 nM.
Consider `CS(=O)(=O)CCOc1ccc(-c2cnc(NCc3cccc4c3CCO4)n3cnnc23)cc1` [Example 75, N-((2,3-dihydrobenzofuran-4-yl)methyl)-8-(4-(2-(methylsulfonyl)ethoxy)phenyl)-[1,2,4]triazolo[4,3-c]pyrimidin-5-amine], for which the IC50 was determined as 34 nM on EED (1-441)-His protein and 37.5 nM in experiment [1].
The like results for `Nc1ccncc1-c1cnc(NCc2cccc3c2CCO3)n2cnnc12` [Example 76, 8-(4-aminopyridin-3-yl)-N-((2,3-dihydrobenzofuran-4-yl)methyl)-[1,2,4]triazolo[4,3-c]pyrimidin-5-amine] were, in that order, 27.5 nM and 56.9 nM.
`c1cc(CNc2ncc(-c3cncc(N4CCNCC4)c3)c3nncn23)c2c(c1)OCC2` [Example 77, N-((2,3-dihydrobenzofuran-4-yl)methyl)-8-(5-(piperazin-1-yl)pyridin-3-yl)-[1,2,4]triazolo[4,3-c]pyrimidin-5-amine]: the IC50 on EED (1-441)-His protein came out at 21.6 nM; in experiment [1] it was 52.3 nM.
Regarding `FC(F)Oc1ccc(-c2cnc(NCc3cccc4c3CCO4)n3cnnc23)cn1` [Example 78, 8-(6-(difluoromethoxy)pyridin-3-yl)-N-((2,3-dihydrobenzofuran-4-yl)methyl)-[1,2,4]triazolo[4,3-c]pyrimidin-5-amine], the IC50 at EED (1-441)-His protein was 103 nM; in experiment [1] it was 160 nM.
As to `CNC(=O)c1ccc(-c2cnc(NCc3cccc4c3CCO4)n3cnnc23)cn1` [Example 79, 5-(5-(((2,3-dihydrobenzofuran-4-yl)methyl)amino)-[1,2,4]triazolo[4,3-c]pyrimidin-8-yl)-N-methylpicolinamide], the IC50 at EED (1-441)-His protein stood at 57.5 nM; in experiment [1], 103 nM.
As for `O=C(c1ccc(-c2cnc(NCc3cccc4c3CCO4)n3cnnc23)cn1)N1CCCC1` [Example 80, (5-(5-(((2,3-dihydrobenzofuran-4-yl)methyl)amino)-[1,2,4]triazolo[4,3-c]pyrimidin-8-yl)pyridin-2-yl)(pyrrolidin-1-yl)methanone], the IC50 was determined as 3.7 nM on EED (1-441)-His protein and 8.8 nM in experiment [1].
For `c1cc(CNc2ncc(-c3ccc(N4CCSCC4)nc3)c3nncn23)c2c(c1)OCC2` [Example 81, N-((2,3-dihydrobenzofuran-4-yl)methyl)-8-(6-thiomorpholinopyridin-3-yl)-[1,2,4]triazolo[4,3-c]pyrimidin-5-amine], in that order: 14.6 nM and 19.1 nM.
`Cc1nn(C(C)C)cc1-c1cnc(NCc2cccc3c2CCO3)n2cnnc12` [Example 82, N-((2,3-dihydrobenzofuran-4-yl)methyl)-8-(1-isopropyl-3-methyl-1H-pyrazol-4-yl)-[1,2,4]triazolo[4,3-c]pyrimidin-5-amine]: the IC50 on EED (1-441)-His protein was found to be 16.7 nM; in experiment [1], 30.9 nM.
For `COCc1ncc(-c2cnc(NCc3cccc4c3CCO4)n3cnnc23)cc1C` [Example 83, N-((2,3-dihydrobenzofuran-4-yl)methyl)-8-(6-(methoxymethyl)-5-methylpyridin-3-yl)-[1,2,4]triazolo[4,3-c]pyrimidin-5-amine], in that order: 10.5 nM and 22.8 nM.
For the compound `CC(O)c1ccc(-c2cnc(NCc3cccc4c3CCO4)n3cnnc23)cn1` (centres unmarked) [Example 84, 1-(5-(5-(((2,3-dihydrobenzofuran-4-yl)methyl)amino)-[1,2,4]triazolo[4,3-c]pyrimidin-8-yl)pyridin-2-yl)ethanol], the IC50 was determined as 6.3 nM at EED (1-441)-His protein and 12.9 nM in experiment [1].
Regarding `Fc1ccncc1-c1cnc(NCc2cccc3c2CCO3)n2cnnc12` [Example 85, N-((2,3-dihydrobenzofuran-4-yl)methyl)-8-(4-fluoropyridin-3-yl)-[1,2,4]triazolo[4,3-c]pyrimidin-5-amine], the figures for the half-maximal inhibitory concentration (IC50) (on EED (1-441)-His protein; in experiment [1]) were 8.3 nM and 26 nM, respectively.
As for `COCCc1ccc(-c2cnc(NCc3cccc4c3CCO4)n3cnnc23)cn1` [Example 86, N-((2,3-dihydrobenzofuran-4-yl)methyl)-8-(6-(2-methoxyethyl)pyridin-3-yl)-[1,2,4]triazolo[4,3-c]pyrimidin-5-amine], the results for the half-inhibitory concentration (IC50) (on EED (1-441)-His protein; in experiment [1]) were 11.1 nM and 26.7 nM, respectively.
As for `O=C1CCCN1c1cncc(-c2cnc(NCc3cccc4c3CCO4)n3cnnc23)c1` [Example 87, 1-(5-(5-(((2,3-dihydrobenzofuran-4-yl)methyl)amino)-[1,2,4]triazolo[4,3-c]pyrimidin-8-yl)pyridin-3-yl)pyrrolidin-2-one], the IC50 came out at 41.8 nM on EED (1-441)-His protein and 83.9 nM in experiment [1].
